From patent US20200113852A1, “METHODS OF PATIENT SELECTION AND TREATING TRXR- OR PRDX-OVEREXPRESSED CANCERS” (TRIACT THERAPEUTICS, INC., priority 2017, published 2020)
Read-outs that look alike come from different tables or passages of the source.

Legend:
[1] = system: MDA-MB-453 cells; assay: Cytotoxicity assay (WST-1 cell viability); conditions: for IC50: Homo sapiens
Method: (§1) Cell viability following drug treatments was assessed using WST-1 cell proliferation assay (Roche) Briefly, cells were plated into 96-well plates with 8,000 (HCT116) or 20,000 (MDA-MB-453) cells per well and allowed to attach overnight. Cells were then preincubated for 5 h in the presence or absence of 1 mM BSO. […] After 3 h of incubation at 37° C., the amount of formazan dye was quantified by measuring the optical density at 450 nm with a scanning multiwell spectrophotometer (PerkinElmer).
as §1, with “(Roche).” for “(Roche)”

[2] = biological target: T1, purified rat liver TrxR (Rattus norvegicus, UniProt O89049); assay: In vitro TrxR activity (DTNB reduction assay); type: biochemical; conditions: 100 μM Iniparib, 200 μM NADPH, up to 120 min
T1 construct: Wild type TrxR purified from rat liver was from Sigma-Aldrich Chemicals; purchased Sigma-Aldrich Chemicals; host or cells: rat liver (tissue-purified)
T1 sequence (O89049 whole entry): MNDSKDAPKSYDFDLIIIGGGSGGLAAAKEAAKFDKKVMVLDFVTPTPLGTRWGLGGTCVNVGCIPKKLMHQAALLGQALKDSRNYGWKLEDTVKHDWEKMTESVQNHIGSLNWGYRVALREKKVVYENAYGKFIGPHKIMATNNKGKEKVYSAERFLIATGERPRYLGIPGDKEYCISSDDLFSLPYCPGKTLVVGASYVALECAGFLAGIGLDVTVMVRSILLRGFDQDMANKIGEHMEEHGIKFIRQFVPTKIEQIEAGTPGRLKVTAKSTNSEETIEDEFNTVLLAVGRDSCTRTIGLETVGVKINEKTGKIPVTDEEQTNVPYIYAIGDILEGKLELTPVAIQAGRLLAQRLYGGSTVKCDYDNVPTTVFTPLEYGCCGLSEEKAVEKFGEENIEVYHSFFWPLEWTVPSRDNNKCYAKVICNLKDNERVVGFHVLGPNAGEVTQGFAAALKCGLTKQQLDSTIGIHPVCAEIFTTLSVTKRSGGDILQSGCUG

[3] = human, in vivo
Text: (§2) It was a single arm, multi dose, dose escalating trial in newly diagnosed GBM patients. The total number of patients was 43, with about 5 patients per cohort. Patients who tolerated radiation (XRT) and temozolomide (TMZ) were recruited. Inclusion criteria included completion of XRT and TMZ without grade 3 or 4 toxicity and labs within acceptable range within 6 weeks of completing XRT. The end points included safety, maximum tolerated dose (MTD), and signal of activity.
(§3) Using modified continual reassessment method, MTD was defined for metronomic and standard dose TMZ.

[4] = Phase I clinical trial GBM, safety, DLT and MTD
Text: as §2, §3

[5] = system: JNK, p38MAPK in MDA-MB-453 cells; assay: Cell death signaling western blots (phospho-JNK, phospho-p38MAPK); conditions: MDA-MB-453, 100 μM
Method: Cells extracts were analyzed by SDS-PAGE either under reducing conditions or under non-reducing conditions in the case of Trx blot followed by blots anti-phospho-JNK, anti-phospho-p38MAPK, anti-cleaved-PARP and anti-Trx. Results are representative of three independent experiments.
After 2 h at 4° C., lysates were clarified by centrifugation and protein amounts were measured using the BCA assay (Pierce, Thermo scientific).
Equal amounts of proteins were resolved by SDS-PAGE under either non-reducing or reducing (5% 2-mercaptoethanol, 20 min at 60° C.) conditions, using 4-20% gels (Novex, Invitrogen), then subjected to semi-dry electrophoretic transfer onto nitrocellulose membranes.

[6] = biological target: T2, TrxR1 and other protein targets in HCT116 cells (Homo sapiens, UniProt Q16881); conditions: 90-min preincubation of GSH-depleted HCT116 (auranofin 10 μM or Iniparib 100 μM)
T2 sequence (Q16881 1-499 isoform Q16881-5): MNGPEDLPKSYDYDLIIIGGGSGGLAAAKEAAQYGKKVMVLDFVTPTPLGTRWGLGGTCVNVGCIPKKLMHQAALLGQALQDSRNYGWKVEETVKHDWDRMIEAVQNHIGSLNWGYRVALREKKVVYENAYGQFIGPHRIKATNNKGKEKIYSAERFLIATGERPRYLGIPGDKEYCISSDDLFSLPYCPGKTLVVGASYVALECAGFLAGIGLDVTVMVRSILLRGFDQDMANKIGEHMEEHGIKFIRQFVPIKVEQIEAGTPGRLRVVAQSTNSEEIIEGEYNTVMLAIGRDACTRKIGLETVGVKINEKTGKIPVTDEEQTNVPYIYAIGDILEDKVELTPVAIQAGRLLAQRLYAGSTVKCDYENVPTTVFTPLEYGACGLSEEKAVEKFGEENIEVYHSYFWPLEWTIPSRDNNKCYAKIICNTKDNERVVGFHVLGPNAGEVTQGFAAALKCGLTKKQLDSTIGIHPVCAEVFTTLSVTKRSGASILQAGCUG
Method: TrxR1 immunoprecipitates (FIG. 17A) and cells extracts (FIG. 17B) were analysed by SDS-PAGE under reducing conditions followed by streptavidin-HRP blot and TrxR1 blot.
Clarified octyl-glucoside lysates (12 mg proteins) were combined with anti-TrxR1 or anti-TrxR2 monoclonal antibody coupled to protein G plus agarose (Santa Cruz Biotechnology) and mixed overnight at 4° C. Beads were recovered by centrifugation for 2 min at 1,000×g and extensively washed in octyl-glucoside lysis buffer. Precipitated complexes were eluted by incubating the beads for 20 min at 60° C. in SDS sample buffer. The amount of immunoprecipitated TrxR1 and TrxR2 was systematically checked by blots anti-TrxR1 and anti-TrxR2, respectively.

`NC(=O)c1ccc(I)c([N+](=O)[O-])c1` [Iniparib, 4-iodo-3-nitrobenzamide] showed an IC50 ([1]; MDA-MB-453, read-out: IC50 (cytotoxicity), MDA-MB-453, GSH depletion (Example 2)) of 16.2 µM, an IC50 ([1]; MDA-MB-453, read-out: IC50 (cytotoxicity), MDA-MB-453, absence of BSO (Example 2)) of 85 µM and an IC50 ([1]; MDA-MB-453, read-out: IC50 (cytotoxicity), MDA-MB-453 after GSH depletion with BSO (Example 1)) of 17.8 ± 2.9 µM. For the same molecule, the IC50 ([1]; MDA-MB-453, read-out: IC50 (cytotoxicity), MDA-MB-453 without BSO pre-treatment, 48 h (Example 1)) was 84 ± 6.5 µM, the “augmentation of cytotoxicity by GSH depletion” value ([1]; MDA-MB-453, BSO vs no BSO) was 4 fold and the TrxR reductase activity [2] was “time-dependent inhibition of its reductase activity”. The “DLT: fatigue” value [3] was 1, the “DLT: hypersensitivity reaction” value [3] was 1 and the “DLT: rash” value [3] was 1. For the same molecule, the “DLT: thromboembolic event” value [3] was 1, the Fatigue [3] was 28 (65) No. (% of pts) and the Nausea [3] was 18 (42) No. (% of pts). The “additional grade 3 toxicities” value [3] was “neutropenia, lymphopenia, nausea, and elevated AST”, the Fatigue ([3]; 3 cycles (10 weeks each)) was 13 (65) No. (% of pts) and the Nausea ([3]; 3 cycles (10 weeks each)) was 9 (45) No. (% of pts). For the same molecule, the Fatigue ([3]; 6 cycles (monthly)) was 15 (65) No. (% of pts), the Nausea ([3]; 6 cycles (monthly)) was 9 (39) No. (% of pts) and the “Phase 2 dose defined” value ([4]; IV 2×/wk with metronomic TMZ) was 8.6 mg/kg. The “Phase 2 dose defined” value ([4]; IV 2×/wk with standard TMZ) was 8 mg/kg, the “JNK activation, time of peak” value [5] was 10 h and the “TrxR1 labeling with Iniparib-biotin after preincubation” value [6] was “only a partial inhibition”.
